The values that follow come from patent US20090163481A1, “PPAR-DELTA LIGANDS AND METHODS OF THEIR USE” (priority 2007, published 2009).

Experiment [1] is described as follows: Proliferation assay of Table 2 (cell line not stated). Type of experiment: cell-based. To be noted: concentration that inhibits cell viability (or growth) by 50% relative to vehicle control; read-out: Prolif IC50. The method, then:
The LANTHA SCREEN™ TR-FRET PPARδ Competitive Binding Assay was conducted for a variety of compounds according to the instructions provided by the manufacturer (Invitrogen). In addition, proliferation assays were conducted. In Table 2, “Prolif IC50” is the concentration that inhibits cell viability (or growth) by 50% relative to a vehicle control, and “TR-F binding IC50 (μM)” is the concentration that competes binding by a labeled pan-agonist to the ligand binding domain of PPAR delta, by 50%.

Experiment [2] deals with A549 cells. Briefly: Cell cycle distribution by flow cytometry in A549 cells. It counts as cell-based, human. The note with it: A549, 2% FBS, 15 μM, after 24 h. The method, then:
Referring now to FIG. 5A, SR13904 exerts inhibitory effects on the cell cycle. A representative experiment in which A549 cells were grown in phenol-red-free DMEM+2% charcoal-treated FBS □ SR13904 ([…]). Cells were treated in the exponential phase and assessed by flow cytometry at 24 and 48 h.
Referring now to FIG. 5B, SR13904 treatment arrests A549 cells in the G1 phase of the cell cycle. A549 cells were incubated in 2% FBS (to maintain a high proliferative state) and the cell-cycle profile was determined by flow cytometry after SR13904 treatment (15 μM) for 24 and 48 h, and compared with similar treatment by a control. […] All differences (SR13904-treated vs. vehicle control-treated) were significant; the G1 differences were highly significant (**p=0.001-0.01, ***p=<0.001). The results provide confirming evidence that activated PPARδ increases cell cycle progression through a positive effect on G1-phase cells, and that PPARδ activation upregulates CDK2, CDK4, and cyclin D1 expression patterns.

The subject of experiment [3] is A549 cells. Description: Western blotting of cell-cycle regulatory proteins in A549 cells. Type of experiment: cell-based, human. The note with it: A549, 20 μM, 24 and 48 h, 0.5% FBS. The procedure: Referring now to FIG. 5C, SR13904 treatment of A549 human NSCLC cell line modulates cell cycle protein expression patterns toward an inhibitory phenotype. Given the flow cytometry results described above, the effect of SR13904 on the expression of some key cell-cycle regulatory proteins involved in G1 and S phases was investigated. A549 cells were grown in phenol-red-free DMEM+0.5% charcoal-treated FBS and exposed to the ligand. […]

Experiment [4] deals with A549 cells. Description: Apoptosis, Cell Death Detection ELISA (DNA fragmentation) in A549 cells. The note with it: A549, 0.5% serum, SR13904 15 μM, 40 h. Type of experiment: cell-based, human. The procedure: Referring now to FIG. 6, SR13904 treatment of cancer cells results in increased apoptosis. A549 cells (2×10^4 cells/well) were incubated in 0.5% media (96 well plates) SR13904 for 40 h. The relative degrees of apoptosis were determined using a Cell Death Detection ELISA (Roche). SR represents SR13904. ***p=<0.001 SR vs. SR+GW501.
SR13904 treatment results in increased apoptosis. Down-regulation of PPARδ, either by genetic knockout or by the treatment with 13-S—HODE (15-lipoxygenase-1 product), induces apoptosis in colorectal cancer cells. The effects of SR13904 (15 μM) GW501 (1 μM) on survival of A549 cells (0.5% serum) was determined. Relative degrees of apoptosis were measured using a DNA fragmentation assay.

In the case of `Cc1cc(SCc2sc(-c3cccc4ccccc34)nc2C)ccc1OCC(=O)O` [SR 13904], in experiment [1], the IC50 amounted to 12 µM. Also, in the experiment with A549 cells [2], the “fraction of cells in the G1 phase” value is recorded as “significantly increased” and the “fraction of cells in the S phase” value is on record as “decreased”. Further, in the experiment on A549 cells [3], the “levels of cyclin E, p21, and p27” value is on record as “little or no effect”; the “steady state levels of CDK2, CDK4, cyclin D1, and cyclin A proteins” value is “decreased”. Further, in the experiment on A549 cells [4], the “apoptosis (DNA fragmentation)” value is given as “significant apoptotic effect”.
